Reference: the NIST ThermoML archive (doi:10.1016/j.fluid.2011.06.011)
Several values for one entry are separate records, joined by “and”; a condition that tells them apart may be missing. Equal entries are not always repeated.

Tests used:
[1] = Liquid; for mass density: Vibrating tube method; for speed of sound: Sing-around technique in a fixed-path interferometer
[2] = refractive index (Na D-line) (dimensionless); conditions: 101.33 kPa, Liquid, Standard Abbe refractometry
[3] = xn = mol fraction of the nth substance listed; conditions: Liquid, x2 = 0; for speed of sound: Sing-around technique in a fixed-path interferometer; for mass density: Vibrating tube method
[4] = refractive index (Na D-line) (dimensionless); xn = mol fraction of the nth substance listed; conditions: 101 kPa, Liquid, Standard Abbe refractometry, x2 = 0

CCO [ethanol]
[1]
Conditions | mass density, 101 kPa [kg/m3] | mass density, 101.33 kPa [kg/m3] | mass density, 20000 kPa [kg/m3] | mass density, 25000 kPa [kg/m3] | mass density, 30000 kPa [kg/m3] | mass density, 35000 kPa [kg/m3] | mass density, 40000 kPa [kg/m3] | speed of sound, 101.33 kPa [m/s]
283.15 K | 798.28 | 798.27 | 812.8 | 816.5 | 819.8 | 823 | 826.1 | 1196.2
298.15 K | 785.46 | 785.45 | 801.5 | 805.3 | 808.8 | 812.2 | 815.5 | 1146.2
313.15 K | – | 772.39 | 789.8 | 794 | 797.4 | 801 | 804.8 | 1096.7
328.15 K | – | 758.93 | 777.8 | 782.2 | 786.3 | 790 | 793.9 | 1047

[2]
Conditions | refractive index
283.15 K | 1.36546
298.15 K | 1.35984
313.15 K | 1.35409
328.15 K | 1.34827

CCO [ethanol] + C=CC(C)(O)CCC=C(C)C
[3]
Conditions | mass density, 101 kPa [kg/m3] | mass density, 20000 kPa [kg/m3] | mass density, 25000 kPa [kg/m3] | mass density, 30000 kPa [kg/m3] | mass density, 35000 kPa [kg/m3] | mass density, 40000 kPa [kg/m3] | speed of sound, 101 kPa [m/s]
283.15 K | 798.28 | 812.8 | 816.5 | 819.8 | 823 | 826.1 | 1196.2
298.15 K | 785.46 | 801.5 | 805.3 | 808.8 | 812.2 | 815.5 | 1146.2
313.15 K | 772.39 | 789.8 | 794 | 797.4 | 801 | 804.8 | 1096.7
328.15 K | 758.93 | 777.8 | 782.2 | 786.3 | 790 | 793.9 | 1047

[4]
Conditions | refractive index
283.15 K | 1.36546
298.15 K | 1.35984
313.15 K | 1.35409
328.15 K | 1.34827

C=CC(C)(O)CCC=C(C)C (stereo not given) [3,7-dimethyl-1,6-octadien-3-ol]
[1]
Conditions | mass density, 101.33 kPa [kg/m3] | mass density, 20000 kPa [kg/m3] | mass density, 25000 kPa [kg/m3] | mass density, 30000 kPa [kg/m3] | mass density, 35000 kPa [kg/m3] | mass density, 40000 kPa [kg/m3] | speed of sound, 101 kPa [m/s] | speed of sound, 101.33 kPa [m/s]
283.15 K | 869.39 | 880.8 | 883.7 | 886.1 | 888.9 | 891.4 | 1370.6 | 1370.3
298.15 K | 857 | 869.4 | 872.3 | 875.2 | 877.9 | 880.6 | 1315.1 | 1313.1
313.15 K | 844.29 | 857.6 | 860.9 | 863.9 | 866.8 | 869.7 | – | 1260.8
328.15 K | 831.31 | 846 | 849.3 | 852.6 | 855.7 | 858.8 | – | 1207.6

[2]
Conditions | refractive index
283.15 K | 1.46659 and 1.4666
298.15 K | 1.45946
313.15 K | 1.45215
328.15 K | 1.44473
